Assay results published in ChEMBL document CHEMBL1201861, “Genomics of Drug Sensitity in Cancer screening data, Wellcome Trust Sanger Institute”.

Tests used:
D-336MG = assay: cells; assay type: functional, cell-based, Homo sapiens; conditions: Homo sapiens, D-336MG
Description: SANGER: Inhibition of human D-336MG cell growth in a cell viability assay.

NCI-H1581 = assay: cells; assay type: functional, cell-based, Homo sapiens; conditions: Homo sapiens, NCI-H1581
Description: SANGER: Inhibition of human NCI-H1581 cell growth in a cell viability assay.

NCI-H1304 = assay: cells; assay type: functional, cell-based, Homo sapiens; conditions: Homo sapiens, NCI-H1304
Description: SANGER: Inhibition of human NCI-H1304 cell growth in a cell viability assay.

KARPAS-299 = assay: cells; assay type: functional, cell-based, Homo sapiens; conditions: Homo sapiens, KARPAS-299
Description: SANGER: Inhibition of human KARPAS-299 cell growth in a cell viability assay.

KU812 cell line = assay: cells; assay type: functional, cell-based, Homo sapiens; conditions: Homo sapiens, KU812
Description: SANGER: Inhibition of human KU812 cell growth in a cell viability assay.

U-698-M = assay: cells; assay type: functional, cell-based, Homo sapiens; conditions: Homo sapiens, U-698-M
Description: SANGER: Inhibition of human U-698-M cell growth in a cell viability assay.

MC-CAR = assay: cells; assay type: functional, cell-based, Homo sapiens; conditions: Homo sapiens, MC-CAR
Description: SANGER: Inhibition of human MC-CAR cell growth in a cell viability assay.

HOP-62 = assay: cells; assay type: functional, cell-based, Homo sapiens; conditions: Homo sapiens, HOP-62
Description: SANGER: Inhibition of human HOP-62 cell growth in a cell viability assay.

OCI-AML2 = assay: cells; assay type: functional, cell-based, Homo sapiens; conditions: Homo sapiens, OCI-AML2
Description: SANGER: Inhibition of human OCI-AML2 cell growth in a cell viability assay.

KY821 = assay: cells; assay type: functional, cell-based, Homo sapiens; conditions: Homo sapiens, KY821
Description: SANGER: Inhibition of human KY821 cell growth in a cell viability assay.

CTB-1 = assay: cells; assay type: functional, cell-based, Homo sapiens; conditions: Homo sapiens, CTB-1
Description: SANGER: Inhibition of human CTB-1 cell growth in a cell viability assay.

GAK = assay: cells; assay type: functional, cell-based, Homo sapiens; conditions: Homo sapiens, GAK
Description: SANGER: Inhibition of human GAK cell growth in a cell viability assay.

BC-3 = assay: cells; assay type: functional, cell-based, Homo sapiens; conditions: Homo sapiens, BC-3
Description: SANGER: Inhibition of human BC-3 cell growth in a cell viability assay.

LOX IMVI = assay: cells; assay type: functional, cell-based, Homo sapiens; conditions: Homo sapiens, LOX IMVI
Description: SANGER: Inhibition of human LOXIMVI cell growth in a cell viability assay.

SBC-1 = assay: cells; assay type: functional, cell-based, Homo sapiens; conditions: Homo sapiens, SBC-1
Description: SANGER: Inhibition of human SBC-1 cell growth in a cell viability assay.

TE-1 = assay: cells; assay type: functional, cell-based, Homo sapiens; conditions: Homo sapiens, TE-1
Description: SANGER: Inhibition of human TE-1 cell growth in a cell viability assay.

RPMI 8402 = assay: SANGER: Inhibition of human RPMI-8402 cell growth in a cell viability assay.; assay type: functional, cell-based; conditions: Homo sapiens, RPMI 8402; read-out: IC50
TE-441-T = assay: cells; assay type: functional, cell-based, Homo sapiens; conditions: Homo sapiens, TE-441-T
Description: SANGER: Inhibition of human TE-441-T cell growth in a cell viability assay.

NCI-H716 = assay: cells; assay type: functional, cell-based, Homo sapiens; conditions: Homo sapiens, NCI-H716
Description: SANGER: Inhibition of human NCI-H716 cell growth in a cell viability assay.

GI-ME-N = assay: cells; assay type: functional, cell-based, Homo sapiens; conditions: Homo sapiens, GI-ME-N
Description: SANGER: Inhibition of human GI-ME-N cell growth in a cell viability assay.

Lu-65 = assay: cells; assay type: functional, cell-based, Homo sapiens; conditions: Homo sapiens, Lu-65
Description: SANGER: Inhibition of human LU-65 cell growth in a cell viability assay.

NB13 = assay: cells; assay type: functional, cell-based, Homo sapiens; conditions: Homo sapiens, NB13
Description: SANGER: Inhibition of human NB13 cell growth in a cell viability assay.

ST486 = assay: SANGER: Inhibition of human ST486 cell growth in a cell viability assay.; assay type: functional, cell-based; conditions: Homo sapiens, ST486
MZ2-MEL = assay: cells; assay type: functional, cell-based, Homo sapiens; conditions: Homo sapiens, MZ2-MEL
Description: SANGER: Inhibition of human MZ2-MEL cell growth in a cell viability assay.

BXPC-3 = assay: cells; assay type: functional, cell-based, Homo sapiens; conditions: Homo sapiens, BXPC-3
Description: SANGER: Inhibition of human BxPC-3 cell growth in a cell viability assay.

8505C = assay: cells; assay type: functional, cell-based, Homo sapiens; conditions: Homo sapiens, 8505C
Description: SANGER: Inhibition of human 8505C cell growth in a cell viability assay.

NCI-H1437 = assay: cells; assay type: functional, cell-based, Homo sapiens; conditions: Homo sapiens, NCI-H1437
Description: SANGER: Inhibition of human NCI-H1437 cell growth in a cell viability assay.

RPMI-2650 = assay: cells; assay type: functional, cell-based, Homo sapiens; conditions: Homo sapiens, RPMI-2650
Description: SANGER: Inhibition of human RPMI-2650 cell growth in a cell viability assay.

PC-14 = assay: cells; assay type: functional, cell-based, Homo sapiens; conditions: Homo sapiens, PC-14
Description: SANGER: Inhibition of human PC-14 cell growth in a cell viability assay.

G-401 = assay: cells; assay type: functional, cell-based, Homo sapiens; conditions: Homo sapiens, G-401
Description: SANGER: Inhibition of human G-401 cell growth in a cell viability assay.

T98G = assay: cells; assay type: functional, cell-based, Homo sapiens; conditions: Homo sapiens, T98G
Description: SANGER: Inhibition of human T98G cell growth in a cell viability assay.

CAL-33 = assay: cells; assay type: functional, cell-based, Homo sapiens; conditions: Homo sapiens, CAL-33
Description: SANGER: Inhibition of human CAL-33 cell growth in a cell viability assay.

SKG-IIIa = assay: cells; assay type: functional, cell-based, Homo sapiens; conditions: Homo sapiens, SKG-IIIa
Description: SANGER: Inhibition of human SKG-IIIa cell growth in a cell viability assay.

NCI-H2087 = assay: cells; assay type: functional, cell-based, Homo sapiens; conditions: Homo sapiens, NCI-H2087
Description: SANGER: Inhibition of human NCI-H2087 cell growth in a cell viability assay.

HCC1395 = assay: cells; assay type: functional, cell-based, Homo sapiens; conditions: Homo sapiens, HCC1395
Description: SANGER: Inhibition of human HCC1395 cell growth in a cell viability assay.

MDA-MB-453 = assay: cells; assay type: functional, cell-based, Homo sapiens; conditions: Homo sapiens, MDA-MB-453
Description: SANGER: Inhibition of human MDA-MB-453 cell growth in a cell viability assay.

D-392MG = assay: cells; assay type: functional, cell-based, Homo sapiens; conditions: Homo sapiens, D-392MG
FTC-133 = assay: cells; assay type: functional, cell-based, Homo sapiens; conditions: Homo sapiens, FTC-133
A 172 = assay: cells; assay type: functional, cell-based, Homo sapiens; conditions: Homo sapiens, A 172
Description: SANGER: Inhibition of human A172 cell growth in a cell viability assay.

MKN-45 = assay: cells; assay type: functional, cell-based, Homo sapiens; conditions: Homo sapiens, MKN-45
Description: SANGER: Inhibition of human MKN45 cell growth in a cell viability assay.

HO-1-N-1 = assay: cells; assay type: functional, cell-based, Homo sapiens; conditions: Homo sapiens, HO-1-N-1
Description: SANGER: Inhibition of human HO-1-N-1 cell growth in a cell viability assay.

CAPAN-1 = assay: cells; assay type: functional, cell-based, Homo sapiens; conditions: Homo sapiens, CAPAN-1
Description: SANGER: Inhibition of human CAPAN-1 cell growth in a cell viability assay.

Huh-7 = assay: cells; assay type: functional, cell-based, Homo sapiens; conditions: Homo sapiens, Huh-7
Description: SANGER: Inhibition of human HuH-7 cell growth in a cell viability assay.

UMUC3 = assay: cells; assay type: functional, cell-based, Homo sapiens; conditions: Homo sapiens, UMUC3
Description: SANGER: Inhibition of human UM-UC-3 cell growth in a cell viability assay.

ASPC1 = assay: cells; assay type: functional, cell-based, Homo sapiens; conditions: Homo sapiens, ASPC1
Description: SANGER: Inhibition of human AsPC-1 cell growth in a cell viability assay.

## COc1cc(-c2nn([C@H]3CC[C@H](N4CCN(C(C)=O)CC4)CC3)c3ncnc(N)c23)ccc1NC(=O)c1cc2ccccc2n1C
D-336MG
  IC50: 0.212 µM
NCI-H1581
  IC50: > 5.12 µM
NCI-H1304
  IC50: > 5.12 µM
KARPAS-299
  IC50: > 5.12 µM
KU812 cell line
  IC50: > 5.12 µM
U-698-M
  IC50: > 5.12 µM
MC-CAR
  IC50: > 5.12 µM
HOP-62
  IC50: 0.475 µM
OCI-AML2
  IC50: 5.1 µM
KY821
  IC50: 3.65 µM
CTB-1
  IC50: > 5.12 µM
GAK
  IC50: > 5.12 µM
BC-3
  IC50: > 5.12 µM
LOX IMVI
  IC50: > 5.12 µM
SBC-1
  IC50: > 5.12 µM
TE-1
  IC50: 2.05 µM
RPMI 8402
  IC50: > 5.12 µM
TE-441-T
  IC50: > 5.12 µM
NCI-H716
  IC50: > 5.12 µM
GI-ME-N
  IC50: 2.29 µM
Lu-65
  IC50: > 5.12 µM
NB13
  IC50: > 5.12 µM
ST486
  IC50: > 5.12 µM
MZ2-MEL
  IC50: > 5.12 µM

## OCCCNc1cc(-c2ccnc(Nc3cccc(Cl)c3)n2)ccn1
D-336MG
  IC50: 0.109 µM
NCI-H1581
  IC50: > 0.256 µM
NCI-H1304
  IC50: 0.104 µM
KARPAS-299
  IC50: 0.0292 µM
KU812 cell line
  IC50: 0.045 µM
U-698-M
  IC50: > 0.256 µM
MC-CAR
  IC50: 0.121 µM
HOP-62
  IC50: 0.0412 µM
OCI-AML2
  IC50: 0.0626 µM
KY821
  IC50: 0.0905 µM
CTB-1
  IC50: 0.153 µM
GAK
  IC50: > 0.256 µM
BC-3
  IC50: 0.0766 µM
LOX IMVI
  IC50: 0.202 µM
SBC-1
  IC50: > 0.256 µM
TE-1
  IC50: > 0.256 µM
RPMI 8402
  IC50: 0.0709 µM
TE-441-T
  IC50: 0.0384 µM
NCI-H716
  IC50: > 0.256 µM
GI-ME-N
  IC50: 0.105 µM
Lu-65
  IC50: > 0.256 µM
NB13
  IC50: 0.126 µM
ST486
  IC50: 0.0312 µM
MZ2-MEL
  IC50: 0.0627 µM

## CN(C)C(=N)NC(=N)N [METFORMIN]
NCI-H1581
  IC50: 14900 µM
NCI-H1304
  IC50: 15600 µM
KARPAS-299
  IC50: > 20000 µM
KU812 cell line
  IC50: 1060 µM
BXPC-3
  IC50: > 20000 µM
8505C
  IC50: 15400 µM
NCI-H1437
  IC50: > 20000 µM
OCI-AML2
  IC50: > 20000 µM
KY821
  IC50: 1530 µM
CTB-1
  IC50: > 20000 µM
RPMI-2650
  IC50: > 20000 µM
PC-14
  IC50: 17600 µM
G-401
  IC50: 1590 µM
T98G
  IC50: > 20000 µM
GAK
  IC50: > 20000 µM
CAL-33
  IC50: > 20000 µM
LOX IMVI
  IC50: 10700 µM
SKG-IIIa
  IC50: > 20000 µM
SBC-1
  IC50: 6930 µM
NCI-H2087
  IC50: > 20000 µM
HCC1395
  IC50: > 20000 µM
TE-1
  IC50: > 20000 µM
MDA-MB-453
  IC50: 12900 µM
D-392MG
  IC50: > 20000 µM
GI-ME-N
  IC50: > 20000 µM
FTC-133
  IC50: > 20000 µM
A 172
  IC50: 17500 µM
Lu-65
  IC50: 511 µM
MKN-45
  IC50: > 20000 µM
HO-1-N-1
  IC50: 13200 µM
CAPAN-1
  IC50: > 20000 µM
MZ2-MEL
  IC50: > 20000 µM
Huh-7
  IC50: 15500 µM
UMUC3
  IC50: 12800 µM
ASPC1
  IC50: 5370 µM

## CC(=O)O[C@H]1C(=O)[C@@]2(C)[C@H]([C@H](OC(=O)c3ccccc3)[C@]3(O)C[C@H](OC(=O)[C@H](O)[C@@H](NC(=O)c4ccccc4)c4ccccc4)C(C)=C1C3(C)C)[C@]1(OC(C)=O)CO[C@@H]1C[C@@H]2O [PACLITAXEL]
D-336MG
  IC50: > 0.102 µM
NCI-H1581
  IC50: 0.0495 µM
NCI-H1304
  IC50: 0.0521 µM
KARPAS-299
  IC50: 0.0398 µM
KU812 cell line
  IC50: 0.0204 µM
U-698-M
  IC50: > 0.102 µM
MC-CAR
  IC50: 0.0233 µM
HOP-62
  IC50: 0.0128 µM
OCI-AML2
  IC50: 0.00852 µM
KY821
  IC50: 0.027 µM
CTB-1
  IC50: 0.0781 µM
GAK
  IC50: 0.102 µM
BC-3
  IC50: 0.0234 µM
LOX IMVI
  IC50: 0.0703 µM
SBC-1
  IC50: 0.0504 µM
TE-1
  IC50: 0.00606 µM
RPMI 8402
  IC50: 0.0126 µM
TE-441-T
  IC50: > 0.102 µM
NCI-H716
  IC50: > 0.102 µM
GI-ME-N
  IC50: 0.0845 µM
Lu-65
  IC50: > 0.102 µM
NB13
  IC50: 0.00491 µM
ST486
  IC50: 0.012 µM
MZ2-MEL
  IC50: 0.0474 µM

## N[C@@H](CSC(c1ccccc1)(c1ccccc1)c1ccccc1)C(=O)O [S-TRITYL-L-CYSTEINE]
D-336MG
  IC50: > 5.12 µM
NCI-H1581
  IC50: 3.6 µM
NCI-H1304
  IC50: > 5.12 µM
KARPAS-299
  IC50: 4.18 µM
KU812 cell line
  IC50: > 5.12 µM
U-698-M
  IC50: > 5.12 µM
MC-CAR
  IC50: 1.21 µM
HOP-62
  IC50: 2.98 µM
OCI-AML2
  IC50: 4.22 µM
KY821
  IC50: 1.78 µM
CTB-1
  IC50: 3.2 µM
GAK
  IC50: > 5.12 µM
BC-3
  IC50: 2.19 µM
LOX IMVI
  IC50: > 5.12 µM
SBC-1
  IC50: > 5.12 µM
TE-1
  IC50: 3.6 µM
RPMI 8402
  IC50: 1.28 µM
TE-441-T
  IC50: 4.79 µM
NCI-H716
  IC50: > 5.12 µM
GI-ME-N
  IC50: 2.28 µM
Lu-65
  IC50: > 5.12 µM
NB13
  IC50: 1.99 µM
ST486
  IC50: 2.09 µM
MZ2-MEL
  IC50: > 5.12 µM
